Data reported in patent publication US6538037B2, “Methods for preparation and use of 1α,24(S)-dihydroxyvitamin D2” (Bone Care International, Inc., priority 1991, dated 2003).
“Also recorded” adds a separate entry of the source.

Legend:
bovine thymus VDR = target: T1, bovine thymus VDR (Bos taurus, UniProt Q28037); assay: Radioreceptor assay, displacement of 3H-1α,25-(OH)2D3 tracer from bovine thymus VDR; assay type: binding
T1 construct: commercially available reagents of bovine thymus VDR; purchased Incstar (Stillwater, Minn.); host or cells: bovine thymus
T1 sequence (Q28037 1-426): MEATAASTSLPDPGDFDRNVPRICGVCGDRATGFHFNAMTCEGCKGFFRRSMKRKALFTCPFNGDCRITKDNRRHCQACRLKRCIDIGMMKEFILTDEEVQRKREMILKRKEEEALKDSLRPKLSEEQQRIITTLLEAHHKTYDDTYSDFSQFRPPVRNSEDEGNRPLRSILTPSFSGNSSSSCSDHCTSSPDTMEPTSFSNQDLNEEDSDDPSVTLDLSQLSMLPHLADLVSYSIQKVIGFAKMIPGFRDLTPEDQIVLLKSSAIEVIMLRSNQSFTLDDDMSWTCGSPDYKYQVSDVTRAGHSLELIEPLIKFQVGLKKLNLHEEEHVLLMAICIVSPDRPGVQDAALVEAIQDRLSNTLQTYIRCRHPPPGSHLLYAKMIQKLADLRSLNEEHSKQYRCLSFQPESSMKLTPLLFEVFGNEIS
Experimental: Purified 1α,24(S)-(OH)2D2 was quantitated by photodiode array spectrophotometry and assayed in the radioreceptor assay.
The purified 1α,24(R)-(OH)2D2 and 1α,24(S)-(OH)2D2 epimers were quantitated by ultraviolet spectroscopy.
The binding affinities of the environmentally exposed compounds, crystalline 1α,24-dihydroxyvitamin D2 and powdered 1α,24-dihydroxyvitamin D2, to the vitamin D receptor (VDR) were assessed using methods known in the art, as described, e.g., in Example 6. […] The percent bound versus amount of compound in pg/tube are graphed in FIG. 5.

[1] = Dose ranging study in postmenopausal osteoporotic women; assay type: in vivo, human; conditions: oral 0.5 to 8.0 μg/day, five weeks
Experimental: Twenty postmenopausal osteoporotic women are enrolled in an open label study.
In admission to the study, all patients receive instruction on selecting a daily diet containing 400 to 600 mg of calcium. Compliance to this diet is verified at weekly intervals by 24-hour food records and by interviews with each patient.
All patients complete a one-week baseline period, a five-week treatment period, and a one-week post-treatment observation period. During the treatment period, patients orally self-administer 1α,24(S)-dihydroxyvitamin D2 at an initial dose of 0.5 μg/day for the first week, and at successively higher doses of 1.0, 2.0, 4.0, and 8.0 μg/day in each of the following four weeks. All doses are administered before breakfast.
Blood and urine chemistries are monitored on a weekly basis throughout the study. Key blood chemistries include fasting serum levels of calcium, phosphorus, osteocalcin, creatinine, and blood urea nitrogen. Key urine chemistries include 24-hour excretion of calcium, phosphorus, and creatinine.

[2] = Prophylaxis of postmenopausal bone loss; assay type: in vivo, human; conditions: at or above 1.0 μg/day, 24 to 36 months
Experimental: A clinical study is conducted with healthy postmenopausal women having ages between 55 and 60 years. The study involves up to 80 patients randomly divided into two treatment groups, and continues for 24 to 36 months. One treatment group receives a constant dosage of 1α,24(S)-dihydroxyvitamin D2 (u.i.d.; a dose level at or above 1.0 μg/day) and the other receives a matching placebo. The study is conducted as indicated in Example 2 above.

Hep 3B cells = assay: Metabolism of 1α-OH-D2 in Hep 3B cells; assay type: in vitro ADME, human; conditions: photodiode array spectrophotometry
Experimental: Substantially pure 1α-(OH)D2 was obtained from Bone Care International, Inc. of Madison, Wis. The 1α-(OH)D2 was cultured for 48 hours with cells derived from a human hepatoma, Hep 3B, in medium devoid of fetal calf serum using known methods in the art.
Lipid extracts of the combined medium and cells were generated by known methods in the art and were subjected to high pressure liquid chromatography (HPLC) on Zorbax-S1L developed with hexane/isopropano/methanol (91:7:2). The putative 1α,24(?)-(OH)2D2 metabolite eluted between the parent 1α-(OH)D2 and standard 1α,25-(OH)2D2 (also obtained from Bone Care International, Inc. of Madison, Wis.). (As used herein, the term “1α,24(?)-(OH)2D2” is meant to indicate that the epimeric form has not been identified.) The 1α,24(?)-(OH)2D2 was further purified by this HPLC system before the metabolite's identification was undertaken using mass spectrometry analysis.
Hep 3B cells were incubated with 1α-OH-D2, as described above, at final concentrations of 1, 10, or 100 nM (Experiment 1), and 1 or 10 μM (Experiment 2) and 1α,24(S)-(OH)2D2 was extracted and purified. The 1α,24(S)-(OH)2D2 and 1α,25-(OH)2D2 metabolites were quantitated by recovered radiolabel (Experiment 1) or by photodiode array spectrophotometry (Experiment 2).

[3] = Blood metabolite levels in osteoporotic women administered 1α-OH-D2; assay type: in vivo, human
Experimental: An increase in the production of 1α,24(S)-(OH)2D2 relative to 1α,25-(OH)2D2 has also been observed by the present inventors in human females who received 1α-OH-D2 as part of an investigation of that drug for the treatment of osteoporosis. Following either a single dose of 2 μg of 1α-OH-D2 or daily doses of 8 μg/day for one week, blood was collected and analyzed for the metabolites 1α,24(S)-(OH)2D2 and 1α,25-(OH)2D2. Lipid was extracted from the blood, and the metabolites were purified by HPLC using standard methods and quantified with the radioreceptor assay produced by Incstar (Stillwater, Minn.). One day after a single 2 μg dose, the level of 1α,24(S)-(OH)2D2 was undetectable with the 1α,25-(OH)2D2 level being approximately 11 pg/ml. In contrast, one day following the last dose of 8 μg, the level of 1α,24(S)-(OH)2D2 averaged 9 pg/mL with the 1α,25-(OH)2D2 level averaging 30 pg/mL.

Compound: C=C1/C(=C\C=C2/CCC[C@]3(C)[C@@H]([C@H](C)/C=C/[C@@](C)(O)C(C)C)CC[C@@H]23)C[C@@H](O)C[C@@H]1O [1α,24(S)-(OH)2D2, 1α,24(S)-dihydroxyvitamin D2]
- affinity for VDR relative to 1α,25-(OH)2D3 (bovine thymus VDR): two-fold lower affinity; also recorded: two-fold less competitive
- IC50 (bovine thymus VDR; radioreceptor assay, Incstar kit, read-out: half-maximal binding (converted)): ~0.35 nM
- 24-hour urinary calcium levels [1]: modest increases in 24-hour urinary calcium levels
- kidney function (creatinine clearance, blood urea nitrogen) [1]: does not adversely affect kidney function
- routinely monitored serum parameters [1]: no effect on any routinely monitored serum parameters
- serum osteocalcin levels [1]: increases in serum osteocalcin levels
- urinary excretion of hydroxyproline [1]: nor does it increase urinary excretion of hydroxyproline
- losses in total body calcium, radial or spinal bone densities relative to baseline [2]: reduced losses in total body calcium, radial or spinal bone densities
- monitored safety parameters [2]: confirm the safety of long-term 1α,24(S)-dihydroxyvitamin D2 administration
- Rate of Production (Hep 3B cells; Experiment 2, substrate 1α-OH-D2 1 μM): 4.9 pmol per 10^6 cells/day
- Rate of Production (Hep 3B cells; Experiment 2, substrate 1α-OH-D2 10 μM): 59 pmol per 10^6 cells/day
- blood level of metabolite ([3]; one day after a single 2 μg dose of 1α-OH-D2): undetectable
- blood level of metabolite (average) ([3]; one day following the last dose of 8 μg/day 1α-OH-D2 for one week): 9 pg/mL
